Data: the SangsterLogP compilation

Conditions: pH 2.0

Row | Structure (SMILES) | logD
1 | O=C(/C=C/c1cccs1)Nc1ccc(I)cc1 | 4.67
2 | COc1ccc(NC(=O)[C@H](OC(=O)CNC(=O)c2ccc(C)s2)c2ccccc2)cc1Cl | 4.54

Next, values leading:

Row | logD | Structure (SMILES)
3 | 0.51 | O=C1[C@@H]2[C@@H]3[C@H]4C[C@H]5[C@@H]3[C@@H]2C2(OCCO2)[C@H]5[C@@H]14
4 | 3.95 | COc1ccccc1NC(=S)N[C@H](NC(=O)c1ccccc1C)C(Cl)(Cl)Cl

Same assay, conditions: pH 5.0

Row | Structure (SMILES) | logD
5 | CC[C@]1(C)NC(=S)N2N1C(=S)N[C@@]2(C)CC | 2.44
6 | C[C@@H](NC(=O)CN(C1CCCCC1)S(=O)(=O)c1ccccc1)c1ccccc1 | 4.9
7 | CN1C(=CC(=O)COC(=O)C(c2ccccc2)c2ccccc2)C(C)(C)c2ccccc21 | 6.27
8 | COc1ccc([C@H]2C(C#N)=C(N)N(c3ccc(Cl)cc3)C3=C2C(=O)CC(C)(C)C3)cc1OC | 4.34
9 | CC(=O)Nc1ccc(/N=C/c2c(O)oc3ccccc3c2=O)cc1 | 3.64
10 | Cc1cc(C)c([C@H]2[C@@H]3CCCC=C3C(C#N)=C(N)C2(C#N)C#N)c(C)c1 | 5.48
11 | COC(=O)c1ccc(N(C(=O)C(F)(F)F)[C@@H]2C=CS(=O)(=O)C2)cc1 | 2.05
12 | CS(=O)(=O)N(CC(=O)Nc1ccccc1C(=O)NCc1ccco1)c1ccc(Cl)cc1 | 4.32

The remaining lines, values ahead:

Row | logD | Structure (SMILES)
13 | 5.54 | O=C(NCc1ccc(F)cc1)c1nn2c(c1Br)N[C@H](c1cccs1)C[C@H]2C(F)(F)F
14 | 3.75 | COc1cc([C@H]2NC(=O)NC(C)=C2C(=O)OC(C)C)ccc1OC(F)F
15 | 2.28 | C#CCN1C(=O)[C@H]2CC[C@@](C)(C1=O)C2(C)C
16 | 3.73 | CC1=NN(C(=O)c2ccccc2Cl)[C@](O)(c2ccc(Cl)cc2)C1
17 | 2.49 | COC(=O)[C@H]1OC(c2ccccc2)O[C@H]1C(=O)OC (some centres undefined)
18 | 3.12 | Cc1c(CN(C)C(=O)[C@@H](C)n2nc(C(F)F)c(Br)c2C)cnn1C
19 | 3.47 | COc1cc2c(cc1OC)[C@@]1(C)N(CC2)C(=O)OC12CCCCC2
20 | 5.31 | COc1ccc(C(=O)/C=C/Nc2ccc(Cl)c(C(F)(F)F)c2)cc1OC

Same assay, conditions: pH 6.5

Row | logD | Structure (SMILES)
21 | 4.38 | Cc1cc2c(cc1C)N[C@@H](c1cc3c(cc1Cl)OCO3)C1=C(CC(C)(C)CC1=O)N2
22 | 6.14 | Cc1ccc(N2CC(=O)N(/N=C/c3cn(-c4ccccc4)nc3-c3ccc(Cl)cc3)CC2=O)cc1
23 | 4.28 | CC(C)(C)S(=O)(=O)/C(C#N)=C/Nc1ccc(OC(F)(F)F)cc1
24 | 3.24 | CCn1c(NC[C@@H](O)c2ccccc2)nc2c1c(=O)n(C)c(=O)n2C

Same assay, conditions: pH 9.2

Row | logD | Structure (SMILES)
25 | 4.12 | Cc1cc(C(=O)NCCc2c(C)[nH]c3ccccc23)ccc1[N+](=O)[O-]

Same assay, conditions: pH 10.0

Row | Structure (SMILES) | logD
26 | Cc1nn(C)cc1-c1cc(C(F)(F)F)n2nc(C(=O)N3C[C@@H](C)O[C@@H](C)C3)cc2n1 | 4.11
27 | CCc1ccc([C@@H]2C(C(=O)OC(C)C)=C(C)N=C3SCCC(=O)N32)cc1 | 4.75
28 | CCCC[C@@]1(c2ccccc2)NC(=S)N(c2ccc(C)cc2)N1 | 5.1
29 | CCCCSC1=C(C#N)[C@H](c2cccc([N+](=O)[O-])c2)C(C(C)=O)=C(C)N1 | 4.44
30 | CCOCCOC(=O)[C@H](C)n1cnc2sc3c(c2c1=O)CC[C@H](C)C3 | 4.25

Now from value to compound:

Row | logD | Structure (SMILES)
31 | 4.4 | Cc1ccc(Cl)c(OCc2ccc(-c3nc4c5c[nH]nc5ncn4n3)o2)c1
32 | 4.73 | CCOC(=O)C1=NN[C@@]2(c3cccc([N+](=O)[O-])c3)C(=O)N(c3cccc(C(F)(F)F)c3)C(=O)[C@H]12
33 | 5.44 | CC1=C(C(=O)OCCc2ccccc2)[C@@H](c2ccc3c(c2)OCO3)C2=C(C[C@H](c3cccs3)CC2=O)N1
34 | 4.22 | COC(=O)C1=C(C)N=C(C)C(C(=O)OC)[C@@H]1c1cccc(Cl)c1 (some centres undefined)
35 | 5 | CCSCCOC(=O)C1=C(C)NC2=C(C(=O)C[C@@H](c3cccs3)C2)[C@H]1c1ccc2c(c1)OCO2

Same assay, conditions: pH 10.5

Row | Structure (SMILES) | logD
36 | Cc1ccc([C@@H](O)C#CC(O)(c2ccccc2)c2ccccc2)o1 | 3.53
37 | O=[N+]([O-])c1ccc(-c2nc3nc4ccccc4nc3n2C[C@@H]2CCCO2)cc1 | 3.75

Now from value to compound:

Row | logD | Structure (SMILES)
38 | 4.93 | CCOc1ccc(N2CN=c3s/c(=C\c4cc(OC)c(OC)cc4[N+](=O)[O-])c(=O)n3C2)cc1
39 | 3.83 | CCCc1[nH]nc2c1[C@H](c1ccsc1C)C(C#N)=C(N)O2
